“Also recorded” adds a separate entry of the source. Where two headings read alike, the source gives them in different places.
How the values were obtained:
[1] = system: muscle stem cells and myoblasts in gastrocnemius, quadriceps and TA muscle; assay: Stem cell and myoblast activation in skeletal muscles without injury, immunofluorescence 2 days after single bolus; format: in vivo, mice; details: gastrocnemius muscle, 2 days after intraperitoneal single bolus, with or without fenofibrate or WY-14643
Description: (§1) Some tissues were flash frozen for cryosectioning.

PPARG = details: agonist of PPARG; cited from earlier work
PPARA = details: agonist of PPARA; cited from earlier work
[2] = system: cryoinjured TA muscle of aged and sarcopenic 2-year-old mice
Description: Liquid chromatography-tandem mass spectrometry (LC-MS/MS) metabolomics and lipidomics analyses were performed according to previously published protocols (Chong et al., 2012).
Eight week old NOD scid gamma (NSG) or C57BL/6 mice were anaesthetized with a mixture of ketamine and xylazine (120 mg/kg and 8 mg/kg respectively) via intraperitoneal injection. After successful anesthetization, the skin over the tibialis anterior (TA) or gastrocnemius or quadriceps muscle was disinfected by wiping with 70% ethanol and a 3 mm incision was made over the TA muscle. A dry-ice-chilled 4-mm metal probe was directly applied onto the exposed skeletal muscle for three cycles of five seconds to induce cryo-injury. Thereafter, the incision was immediately sutured using a surgical suture stapler. Upon recovery under heat lamps for a period of 2 hours, the mice were randomly allocated to each treatment groups. […] Samples were serially sectioned until depleted and haemotoxylin and eosin (H&E) staining was performed on every 12th 5 um-thick tissue section. After microscopy imaging, the area of the cryo-injured myofibers was quantified using ImageJ.
Tibialis anterior (TA) tissue samples embedded in paraffin were sectioned using a microtome and transferred onto Leica Microsystems Plus Slides. Some tissues were flash frozen for cryosectioning. Paraffin-embedded sections were deparaffinized in xylene (Merck) for 2 washes (10 mins) and then transferred sequentially into 100% EtOH (Merck), 100% EtOH, 95% EtOH and 70% EtOH (2 mins) at room temperature. The sections were then rehydrated in deionized water (3 mins). Antigen retrieval was carried out using the 2100 Retriever in sodium citrate buffer (Merck, pH 6.2, 30 mins). Slides were then cooled in cold PBS (15 mins) and blocked in blocking buffer at room temperature (30 mins). Primary antibody staining was conducted in blocking buffer at 4° C. overnight with the following antibodies, GFP (1:500, sc-9996, Santa Cruz), Pax7 (5 ug/ml, 042349, DSHB), MyoD (5 ug/ml, sc-377460, Santa Cruz), Ki67 (1:100, 14-5698-82, Thermo Fisher), embryonic MHC (Myh3; 1:100, sc-53091, Santa Cruz), PDGFRa (5 ug/mL, AF1062, R&D), F4/80 (1:100, ab6640, Abcam), PPARG (1:1000, 2443S, CST), and myosin heavy chain eFluor 660 (1:20, 50-6503-82, eBioscience). After the slides were washed thrice in PBS (10 mins) and counterstained with DAPI, secondary antibody staining for GFP was conducted in blocking buffer at room temperature (1 hr) with goat anti-mouse IgG secondary antibody, Alexa Fluor 488 (1:500, A11001, Thermo Fisher).

[3] = system: pure primary human myoblasts; assay: Pure primary human myoblasts treated with PGI2-related drugs (Western blot, qRT-PCR); format: cell-based; details: pure primary human myoblasts, relative to DMSO
[4] = system: cryoinjured tibialis anterior (TA) muscle
Description: Eight week old NOD scid gamma (NSG) or C57BL/6 mice were anaesthetized with a mixture of ketamine and xylazine (120 mg/kg and 8 mg/kg respectively) via intraperitoneal injection. After successful anesthetization, the skin over the tibialis anterior (TA) or gastrocnemius or quadriceps muscle was disinfected by wiping with 70% ethanol and a 3 mm incision was made over the TA muscle. A dry-ice-chilled 4-mm metal probe was directly applied onto the exposed skeletal muscle for three cycles of five seconds to induce cryo-injury. Thereafter, the incision was immediately sutured using a surgical suture stapler. Upon recovery under heat lamps for a period of 2 hours, the mice were randomly allocated to each treatment groups. […] Samples were serially sectioned until depleted and haemotoxylin and eosin (H&E) staining was performed on every 12th 5 um-thick tissue section. After microscopy imaging, the area of the cryo-injured myofibers was quantified using ImageJ. For western blot samples, TA muscles were snap-frozen in liquid nitrogen and homogenized in RIPA buffer (Thermo Fisher) supplemented with protease inhibitor cocktails I and II (Merck) and phosphatase inhibitor cocktail set III (Merck) using TissueLyser II (Qiagen).

[5] = system: GFP+ human myocytes engrafted into cryoinjured TA muscle; details: myoblasts pre-treated 0-24 h, injected 24 h after cryoinjury
Description: as §1

cryoinjured TA muscle = assay: Muscle regeneration after cryoinjury: regenerative index, myogenic proteins, myofiber diameter, grip strength after bolus injection; format: in vivo, mice
Description: as §1

[6] = system: primary human myoblasts / myocytes
Description: Primary human skeletal muscle (HSKM) progenitors (Gibco) were cultured on gelatin solution (0.1%, Merck-Millipore)-coated plate and incubated in a humidified atmosphere (5% CO2 and 37° C.) with growth medium composed of DMEM/F-12 (Gibco) supplemented with fetal bovine serum (FBS) (20%, GE Healthcare), L-glutamine (1%, Gibco) and penicillin-streptomycin (1%, Gibco). Confluent HSKM progenitors were induced to differentiate by replacing growth media with differentiation medium, comprising of DMEM/F-12, KnockOut Serum Replacement (2%, Gibco), L-glutamine (1%, Gibco) and penicillin-streptomycin (1%, Gibco).
RNA was extracted using TRIzol (Thermo Fisher) and reverse transcribed to cDNA with Superscript III (Thermo Fisher) according to manufacturer's instructions. The synthesized cDNA was diluted 5× in H2O before performing qPCR with KAPA SYBR FAST (Merck) on ABI Prism 7900HT (Applied Biosystems) real-time PCR system according to manufacturers' instructions.
Cells were washed with PBS (Thermo Fisher) and fixed with paraformaldehyde (PFA) (4%, Electron Microscopy Sciences) at room temperature for 10 mins. Cells were stained with primary antibody myosin heavy chain eFluor 660 (1:20, 50-6503-82, Thermo Fisher) at 4 C overnight. DAPI (Merck) was used as a nuclear counterstain according to manufacturer's recommendations. Stained cells were imaged with a Zeiss fluorescence microscope.

[7] = system: fibrosis in TA muscle, liver, skin and heart of 2-year old mice; assay: Aging-induced fibrosis and fibrotic precursors in 2-year old mice after daily injection; format: in vivo; details: for relative changes in the % fibrotic area (Masson trichrome staining) / relative changes in the percentage fraction of fibrotic precursors (PGDFRA-positive and Ki67-positive): 7 days post-injection, 2-year old mice
Description: as §1

[8] = 2-year old mice, injected at 0 h after injury, 27 days post-injury

## Cc1cccc(Nc2cc(Cl)nc(SCC(=O)O)n2)c1C [WY-14643, pirinixic acid]
[1]
  percentage fraction of myoblasts (MyoD-positive cells): significantly increased
  percentage fraction of proliferative myoblasts (MyoD-positive Ki67-positive cells): significantly increased
PPARG
  EC50: 32 µM
PPARA
  EC50: 0.63 µM

## CN(CCOc1ccc(CC2SC(=O)NC2=O)cc1)c1ccccn1 (centres unmarked) [rosiglitazone]
[2]; 2-year old mice, injected at 0 h after injury, 6 days post-injury
  regenerative index (fraction of nuclei in embryonic MHC-positive myofibers): can restore aged muscle regeneration; also recorded: significantly improved
[2]; [8]
  fibrotic area in the TA muscle (Masson trichrome): can reverse the aged muscle fibrosis; also recorded: significantly reduced fibrosis
  grip strength: can partially restore grip strength
[2]; 2-year old mice, injected at 24 h and 48 h time-points
  regenerative index (fraction of nuclei in embryonic MHC-positive myofibers): did not show as strong an improvement
[2]; 2-year-old mice, 27 days after single intramuscular bolus
  body weight or aging-induced obesity: no significant changes; also recorded: insufficient to affect total body weight and obesity
[2]; 2-year-old mice, bolus at 0 h post-injury, day 6
  FAO intermediates (acyl-carnitines) / FAO flux in TA muscle, LC-MS/MS: led to an induction; also recorded: transiently increase FAO flux
[3]
  H3K9ac and MyoD protein (Western blot): followed the same pattern of regulation as PPARG
  PPARG protein levels (Western blot): stabilize and/or upregulate
[4]; injection at 24 h and 48 h, relative to control and 0 h
  MHC protein isoforms and α-actinin protein levels (Western blot): stronger expression
[4]; injection at 24 h and 48 h after injury, 4 days post-injury
  skeletal muscle regeneration (remaining necrotic area): improved skeletal muscle regeneration
[4]; intramuscular injection at 24 h post-cryoinjury, TA 4 days post-injury
  MyoD and MyoG protein expression (Western blot): elicited the strongest expression
[5]
  MHC protein expression among the engrafting human myocytes: significantly enhanced
Cryoinjured TA muscle; 14 days post-injury, 6-week old mice, prostaglandin at 0 h, rosiglitazone at 24 h post-injury
  grip strength: partially restore grip strength
Cryoinjured TA muscle; TA muscle 6.5 days post-injury, prostaglandin at day 0, rosiglitazone at day 1
  hypertrophic growth (myofiber cross-sectional Feret diameters): increase hypertrophic growth
Cryoinjured TA muscle; TA muscle 6.5 days post-injury, single bolus, combinations: prostaglandin at day 0, rosiglitazone at day 1, relative to DMSO vehicle
  regenerative index (fraction of nuclei in embryonic MHC-positive myofibers): significantly increase muscle regeneration
[6]; 0-24 h and 24-48 h time-windows, low density
  myogenesis (MHC protein and α-actinin immunostaining): significantly enhanced myogenesis
[6]; 0-24 h time-window, high density
  myotube/myofiber maturity and hypertrophy (immunofluorescence): more mature and hypertrophic human myotubes; also recorded: significantly more mature and hypertrophic; also recorded: induces myofibers with wider diameter and higher expression of MHC and α-actinin
[6]; 0-24 h time-window, low density, at the end of 96 h
  mRNA levels of myogenin (MYOG), adult type I myosin heavy chain (MYH7) and perinatal myosin heavy chain (MYH8): uniquely upregulated
[6]; different time-windows, low density conditions
  myocyte/myotube size and MHC, α-actinin expression (immunofluorescence): induces larger myocytes and myotubes with higher expression levels of MHC and α-actinin
[6]; other time-windows of treatment, low density, at the end of 96 h
  mRNA levels of MYOG, MYH7 and MYH8: no significant effects
[6]; other time-windows, low density
  myogenesis (MHC protein and α-actinin immunostaining): suppressed myogenesis
[7]; TA muscle, daily injection
  relative changes in the % fibrotic area (Masson trichrome staining): partially reverse the aged muscle fibrosis; also recorded: significant reversal of aging-induced fibrosis
  relative changes in the percentage fraction of fibrotic precursors (PGDFRA-positive and Ki67-positive): partially suppress the aged muscle fibrotic precursors
[7]; heart tissue, daily injection
  relative changes in the % fibrotic area (Masson trichrome staining): partially reverse the aged cardiac fibrosis
  relative changes in the percentage fraction of fibrotic precursors (PGDFRA-positive and Ki67-positive): partially suppress the aged cardiac fibrotic precursors
[7]; liver tissue, daily injection
  relative changes in the % fibrotic area (Masson trichrome staining): partially reverse the aged liver fibrosis
  relative changes in the percentage fraction of fibrotic precursors (PGDFRA-positive and Ki67-positive): partially suppress the aged liver fibrotic precursors
[7]; liver, skin and heart, 2-year-old mice
  PDGFRA+ Ki67+ fibrotic precursor numbers in multiple non-skeletal muscle tissues: suppress
[7]; liver, skin and heart, daily injection, 2-year-old mice
  aging-induced fibrosis (fibrotic area) in multiple non-skeletal muscle tissues: significant reversal of aging-induced fibrosis
[7]; skin tissue, daily injection
  relative changes in the % fibrotic area (Masson trichrome staining): partially reverse the aged skin fibrosis
  relative changes in the percentage fraction of fibrotic precursors (PGDFRA-positive and Ki67-positive): partially suppress the aged skin fibrotic precursors
